These results are taken from paper PMC8868383, “Pharmacokinetics and Pharmacodynamics of Key Components of a Standardized Centella asiatica Product in Cognitively Impaired Older Adults: A Phase 1, Double-Blind, Randomized Clinical Trial” (Antioxidants, 2022).

A short description of series [1]: Renal (urinary) excretion over 10 h after CAP administration. The following applies: for Predominant form (free or conjugated) in post-administration urine: 10 h urine; for Predominant form (free or conjugated) in post-administration urine / Detection in 10 h post-administration urine: 2 g and 4 g CAP.
Method: (§1) All participants were asked to refrain from consuming food until 2 h after consumption of the study intervention at each visit to prevent delayed absorption due to food effects. […] Urine samples were collected at baseline and over the 10 h post-administration period at each visit to measure renal excretion. All post-administration urinary output was combined in a 2 L urine collection container stored at 4 °C during the study visit. The total amount of post CAP administration urine was recorded, and a 50 mL aliquot was frozen at −80 °C for analysis. At the second visit, participants consumed the dose they were not randomized to receive at the first visit and underwent all study procedures previously described.
(§2) Calibration curves were prepared in baseline urine and treated with sham enzyme.
(§3) Plasma and urine samples collected at the participant’s screening visit were analyzed in parallel with the samples collected from each study visit to determine the efficacy of the low phytochemical diet in reducing analyte levels from dietary sources. The analysis of the prepared plasma and urine samples was performed at the OHSU Bioanalytical Shared Resource/Pharmacokinetics Core Laboratory (Portland, OR). […] The injection volume was 5 µL. Gradient elution was performed using a mobile phase of solvent A (water containing 0.05% v/v acetic acid) and solvent B (acetonitrile with 0.05% v/v acetic acid). The flow rate was 0.8 mL/min.
A short description of series [2]: Plasma pharmacokinetics after single oral administration of CAP. The following applies: for Cmax / Tmax / AUC(0-t) / half-life: human; for Cmax / Tmax / AUC(0-t) / half-life / Fold difference in Cmax between the 2 g and 4 g doses: plasma; for Time of preliminary (initial) peak of plasma concentration-time curve / Time of larger secondary peak of plasma concentration-time curve: mean profile, both doses (2 g and 4 g).
From the text: (§4) This was a single-center, randomized, double blind, crossover study of two acute dosages (2 g and 4 g) of CAP. The participants were randomized using an arm equivalence design, by the OHSU Research Pharmacy, to receive each dose of CAP in a different order to prevent tolerance effects and ensure some data was available from each dose in the case of a dropout after the first dose. All study personnel were blinded to the participant’s randomization until all data analysis had been completed. All participants consumed both doses of CAP and attended two study visits a minimum of 14 days apart. They were placed on a low phytochemical diet for 48 h prior to and during each study visit in order to minimize interference from dietary TTs and CQAs and ensure that any such compounds identified in the plasma and urine were derived from C. asiatica. To ensure compliance, all participants completed a diet diary over the course of the 48 h. The participants fasted for a minimum of 10 h prior to each study visit, excluding water, to standardize gastrointestinal transit time and minimize delayed absorption due to the presence of food.
(§5) In the morning of each study visit, a baseline blood sample (20 mL) was collected via a peripheral intravenous catheter. […] Blood samples (10 mL) were collected via the peripheral catheter over a 10 h post-administration period at 0.25, 0.5, 0.75, 1, 1.5, 2, 2.5, 3, 4, 6, 8, and 10 h. Blood was transferred to a BD Vacutainer™ heparinized tube (Fisher Scientific) and centrifuged for 10 min at 10,000× g and 4 °C to isolate plasma. Plasma was frozen in 2mL aliquots and kept at −80 °C until analysis. […] All participants were asked to refrain from consuming food until 2 h after consumption of the study intervention at each visit to prevent delayed absorption due to food effects. Breakfast (at 2 h following CAP ingestion), lunch, dinner and snacks, all meeting the low phytochemical criteria, were provided by the OCTRI Bionutrition Unit. Urine samples were collected at baseline and over the 10 h post-administration period at each visit to measure renal excretion. All post-administration urinary output was combined in a 2 L urine collection container stored at 4 °C during the study visit. The total amount of post CAP administration urine was recorded, and a 50 mL aliquot was frozen at −80 °C for analysis. At the second visit, participants consumed the dose they were not randomized to receive at the first visit and underwent all study procedures previously described.
(§6) Sample preparation was performed using a protein precipitation method adapted from Cheng et al. [55] Duplicate plasma samples (50 µL) were combined with an ascorbic acid solution (1%; 10 µL) and incubated for 20 min at 37 °C using A. aerogenes sulfatase (2.5 µL; 0.025–0.05 units) and E. coli glucuronidase (2.5 µL; 12.5–125 units) dissolved in 50% aqueous glycerol to release the analytes from their sulfate and β-D-glucuronic acid esters. Proteins were precipitated by adding a crash solution (200 µL) consisting of 3:1 acetonitrile:methanol containing internal standards (20 µg/mL d3-isoferulic acid, d3-dihydroisoferulic acid, and chrysin or 50 µg/mL ^13C3-ferulic acid and ursolic acid), holding for 30 min at 4 °C and then centrifuged for 5 min at 10,000× g. The supernatant was filtered through a 0.22 µm Ultrafree MC-GV spin filter (Millipore Sigma) at 10,000× g for 5 min at 4 °C and then transferred to vials for analysis. For TT analysis, the concentration of organic solvent (the sample filtrate) to water in each sample was adjusted to a 60:40 ratio to optimize the peak shape, and for CQA analysis, the concentration of organic solvent to 1% aqueous formic acid in each sample was adjusted to a 90:10 ratio to optimize the peak shape.

Series [3] can be described thus: Analyte levels in screening and baseline plasma and urine (low phytochemical diet check). The following applies: for Baseline Total, urine concentration / Baseline Unconjugated, urine concentration: baseline on study visits after 48 h low phytochemical diet, before CAP; for Baseline Total, urine concentration / Screening Unconjugated, urine concentration / Screening Total, urine concentration / Baseline Unconjugated, urine concentration: mean ± SEM, n = 4; for Screening Unconjugated, urine concentration / Screening Total, urine concentration: screening visit; for Screening Unconjugated, urine concentration / Screening Total, urine concentration / Plasma concentration at screening visit: uncontrolled diet; for Screening Unconjugated, urine concentration: sham enzyme; for Screening Total, urine concentration: with enzyme hydrolysis; for Plasma concentration at screening visit: before any CAP.
From the text: as §4, §2
(§7) Plasma and urine samples collected at the participant’s screening visit were analyzed in parallel with the samples collected from each study visit to determine the efficacy of the low phytochemical diet in reducing analyte levels from dietary sources. The analysis of the prepared plasma and urine samples was performed at the OHSU Bioanalytical Shared Resource/Pharmacokinetics Core Laboratory (Portland, OR). For detection of TT glycosides and aglycones, an analytical method adapted from Nair et al. [56] was used. […] The injection volume was 20 µL. Gradient elution was performed using a mobile phase of solvent A (water containing 10 mM ammonium acetate and 0.02% ammonium hydroxide; pH 8.5) and solvent B (methanol). The flow rate was 0.42 mL/min. […] The injection volume was 5 µL. Gradient elution was performed using a mobile phase of solvent A (water containing 0.05% v/v acetic acid) and solvent B (acetonitrile with 0.05% v/v acetic acid). The flow rate was 0.8 mL/min.

The conditions of series [4]: human, in vivo.
From the text: as §4, §5, §6
For series [5] the following is noted: in vivo.
Method: as §1, §2, §3
For series [6] the following is noted: in vivo. This is another data set of the same source.
From the text: as §4, §2, §7
Series [7] in a line: clinical. The following applies: human, in vivo, po.
From the text: as §4, §5, §6
On the set-up of series [8]: method as in PMID 33767223. The following applies: two separate doses (250 mg and 500 mg), formulation with solubilizing agent; cited from earlier work.
Details of series [9]: method as in PMID 19167274. The following applies: dogs given encapsulated aqueous extracts of C. asiatica standardized to asiaticoside; cited from earlier work.
Details of series [10]: method as in PMID 2329813, PMID 8020529. The following applies: past human studies of TTFCA or asiatic acid alone, capsule form; cited from earlier work.

Values joined by “and” are separate entries in the source; they are usually repeats but may differ in a detail not shown here. Equal entries are not always repeated. Where two headings read alike, the source gives them in different places.

As usually defined, the Cmax is the peak of the concentration-time curve. Broadly, the Tmax is the time from dosing to the highest level. By AUC(0-t) is commonly meant exposure summed from dosing to a finite time, without extrapolation to infinity. Read a high AUC(0-t) as more exposure. The half-life is how long it takes for the measured level to halve. A lower half-life goes with rapid decline.

For `O=C(O)CCc1cccc(O)c1` [HPP, 3-(3-hydroxyphenyl)propionic acid], the “Predominant form (free or conjugated) in post-administration urine” value (“Predominant form (free or conjugated)” below) in series [1] was “predominantly conjugated form”. In addition, in series [2] (oral), the highest concentration (Cmax) was in the range of 32 to 42 ng/mL and the Tmax came to 6 h. Moreover, in series [2] (po, 2 g), the exposure AUC(0-t) was determined as 100 ± 46 ng·h/mL, the concentration peaked (Cmax) at 32 ± 18 ng/mL, the Tmax came out at 6 ± 1.4 h and the half-life was 2.3 ± 0.3 h. Moreover, in series [2] (po, 4 g), the AUC(0-t) was 189 ± 77 ng·h/mL, the peak level (Cmax) was 42 ± 18 ng/mL, the Tmax came out at 5.5 ± 1.7 h and the half-life is 1.8 ± 0.7 h. Also, in [3], the “Baseline Total, urine concentration” value is on record as 2 ± 2 ng/mL; the “Screening Unconjugated, urine concentration” value (shortened to “Screening Unconjugated”) was 23 ± 14 ng/mL; the “Screening Total, urine concentration” value came out at 91 ± 48 ng/mL; the “Plasma concentration at screening visit” value came out at 49.6 ± 30.4 ng/mL.

For the compound `COc1cc(/C=C/C(=O)O)ccc1O` [FA, ferulic acid], in [4], the “Cmax, range over the 2 g and 4 g doses as stated in text” value lay in the range of 1 to 1.4 ng/mL; the “Tmax as stated in text” value was 6 h. The “Predominant form (free or conjugated)” value in series [5] is reported as “predominantly conjugated form”. In addition, in [6], the “Plasma concentration at screening visit” value is listed as 1.3 ± 0.2 ng/mL; the “Screening Total, urine concentration” value was determined as 372 ± 78 ng/mL; the “Screening Unconjugated” value worked out at 7 ± 3 ng/mL.

Consider `O=C(O)/C=C/c1ccc(O)c(O)c1` [CA, caffeic acid], for which, in [7], the peak level (Cmax) was 0.3 ± 0.2 ng/mL. Further, in series [2] (oral), the Cmax was in the range of 0.3 to 0.5 ng/mL and the Tmax came out at 6 h. Also, in series [2] (po, 2 g), the AUC(0-t) was 1 ± 1 ng·h/mL and the half-life was 2.6 h. In addition, in [2] (po, 4 g), the AUC(0-t) turned out to be 3 ± 0.3 ng·h/mL, the highest level (Cmax) was 1 ± 0.1 ng/mL, the Tmax came out at 4 ± 1 h and the half-life is 3.5 ± 1.2 h. Moreover, in [3], the “Screening Unconjugated” value stood at 184 ± 144 ng/mL; the “Screening Total, urine concentration” value was 260 ± 140 ng/mL; the “Plasma concentration at screening visit” value stood at 0.8 ± 0.6 ng/mL.

For `C[C@H]1[C@H](C)CC[C@]2(C(=O)O)CC[C@]3(C)C(=CC[C@@H]4[C@@]5(C)C[C@@H](O)[C@H](O)[C@@](C)(CO)[C@@H]5[C@H](O)C[C@]43C)[C@H]12` [MA, madecassic acid], the Cmax is 36 to 68 ng/mL in series [2] (oral); 32 ng/mL in series [2] (oral, 2 g); 47 ng/mL in series [2] (oral, 4 g); 38 ± 3 ng/mL in series [2] (po, 2 g); 63 ± 10 ng/mL in [2] (po, 4 g). Besides, the Tmax is 2 h in [2] (oral); 0.75 h in series [2] (oral, 2 g); 3 h in series [2] (oral, 4 g); 2 ± 0.5 h in series [2] (po, 2 g); 2 ± 0.5 h in series [2] (po, 4 g). Moreover, the AUC(0-t) was determined as 101 ± 16 ng·h/mL in series [2] (po, 2 g) and 187 ± 48 ng·h/mL in [2] (po, 4 g). Moreover, the half-life in series [2] (po, 2 g) is 1.7 ± 0.5 h; in series [2] (po, 4 g), 1.7 ± 0.9 h. In addition, the “Time of preliminary (initial) peak of plasma concentration-time curve” value (“Time of preliminary” below) in series [2] was found to be 0.75 h.

On to `O=C(O)CCc1ccc(O)c(O)c1` [DHCA, dihydrocaffeic acid], for which the “Predominant form (free or conjugated)” value in series [1] was “predominantly conjugated form”. In series [2] (oral), the Cmax was in the range of 1 to 2 ng/mL and the Tmax turned out to be 4 h. In series [2] (po, 2 g), the area under the curve AUC(0-t) worked out at 3 ± 0.4 ng·h/mL, the peak level (Cmax) was 1 ± 0.4 ng/mL, the time of peak concentration (Tmax) was 3.25 ± 0.5 h and the half-life is 4.8 ± 1.3 h. Further, in series [2] (po, 4 g), the AUC(0-t) turned out to be 6 ± 1 ng·h/mL, the Cmax is 2 ± 0.2 ng/mL, the Tmax amounted to 3.5 ± 0.5 h and the half-life was 1.1 ± 0.4 h. In addition, in series [2], the “Time of larger secondary peak of plasma concentration-time curve” value was 4 h; the “Time of preliminary” value is 2 h; the “Fold difference in Cmax between the 2 g and 4 g doses” value (shortened to “Fold difference”) is “two-fold”. In addition, in series [3], the “Baseline Total, urine concentration” value was found to be 9 ± 3 ng/mL; the “Baseline Unconjugated, urine concentration” value came to 0.9 ± 2 ng/mL; the “Screening Unconjugated” value was 46 ± 36 ng/mL; the “Screening Total, urine concentration” value came to 117 ± 64 ng/mL. The “Plasma concentration at screening visit” value in [3] was 0.3 ± 0.2 ng/mL.

On to `COc1cc(CCC(=O)O)ccc1O` [DHFA, dihydroferulic acid], for which the “Predominant form (free or conjugated)” value in series [1] is recorded as “predominantly conjugated form”. Further, in series [2] (oral), the highest concentration (Cmax) was 11 to 20 ng/mL and the Tmax came to 4 h. Besides, in series [2] (po, 2 g), the exposure AUC(0-t) came to 42 ± 18 ng·h/mL, the highest level (Cmax) was 11 ± 5 ng/mL, the Tmax was 3.4 ± 1 h and the half-life is 4.5 ± 1.6 h. In [2] (po, 4 g), the AUC(0-t) was determined as 77 ± 25 ng·h/mL, the Cmax stood at 20 ± 6 ng/mL, the Tmax was determined as 3.5 ± 0.5 h and the half-life was 2.5 ± 0.3 h. Further, the “Fold difference” value in [2] is recorded as “two-fold”. In addition, in series [3], the “Baseline Total, urine concentration” value is 273 ± 131 ng/mL; the “Baseline Unconjugated, urine concentration” value is 8 ± 6 ng/mL; the “Screening Unconjugated” value stood at 179 ± 74 ng/mL; the “Screening Total, urine concentration” value worked out at 939 ± 507 ng/mL. The “Plasma concentration at screening visit” value in series [3] amounted to 6.6 ± 3.2 ng/mL.

For `COc1ccc(/C=C/C(=O)O)cc1O` [IFA, isoferulic acid], the “Predominant form (free or conjugated)” value in series [1] is given as “predominantly conjugated form”. Further, in series [2] (oral), the highest concentration (Cmax) is 0.9 to 2 ng/mL and the Tmax was determined as 0.75 h. For the same compound, in series [2] (po, 2 g), the AUC(0-t) was 5 ± 2 ng·h/mL, the Cmax is 0.9 ± 0.3 ng/mL, the Tmax is 1.3 ± 0.6 h and the half-life was 8.8 ± 5.7 h. Further, in [2] (po, 4 g), the AUC(0-t) was found to be 8 ± 0.4 ng·h/mL, the concentration peaked (Cmax) at 2 ± 0.1 ng/mL, the Tmax was determined as 1 ± 0.4 h and the half-life was 2.9 ± 0.6 h. Further, the “Fold difference” value in series [2] is “two-fold”. Moreover, in series [3], the “Baseline Total, urine concentration” value is 5 ± 2 ng/mL; the “Screening Unconjugated” value worked out at 4 ± 3 ng/mL; the “Screening Total, urine concentration” value was found to be 472 ± 246 ng/mL; the “Plasma concentration at screening visit” value was 2.3 ± 1.0 ng/mL.

Take `C[C@H]1[C@H](C)CC[C@]2(C(=O)O[C@@H]3O[C@H](CO[C@@H]4O[C@H](CO)[C@@H](O[C@@H]5O[C@@H](C)[C@H](O)[C@@H](O)[C@H]5O)[C@H](O)[C@H]4O)[C@@H](O)[C@H](O)[C@H]3O)CC[C@]3(C)C(=CC[C@@H]4[C@@]5(C)C[C@@H](O)[C@H](O)[C@@](C)(CO)[C@@H]5[C@H](O)C[C@]43C)[C@H]12` [MS, madecassoside]: the “Plasma concentration after single administration of modified ECa233” value in [8] was 10 to 13 ng/mL. In addition, in [1], the “Detection in 10 h post-administration urine” value is “small amounts” and the “Predominant form (free or conjugated)” value was “predominantly free form”. For the same compound, the “Amount in the 10 h urine” value in [1] (after 2 g or 4 g CAP) was in the range of 1 to 8 µg. In series [2] (all time points, 2 g and 4 g CAP), the Plasma levels result is recorded as “below the lower limit of quantitation (LLOQ)”.

Consider `C[C@H]1[C@H](C)CC[C@]2(C(=O)O)CC[C@]3(C)C(=CC[C@@H]4[C@@]5(C)C[C@@H](O)[C@H](O)[C@@](C)(CO)[C@@H]5CC[C@]43C)[C@H]12` [AA, asiatic acid], for which the “Time of plasma peak post consumption” value in [9] is recorded as 2.7 h. The Tmax post-ingestion in series [10] was 4.0 to 4.6 h. Besides, in series [1], the “Detection in 10 h post-administration urine” value is reported as “very low concentrations” and the “Predominant form (free or conjugated)” value is recorded as “predominantly in the conjugated form”. In addition, in series [2] (oral), the peak concentration (Cmax) is 133 to 259 ng/mL and the Tmax worked out at 2 h. For the same compound, in [2] (oral, 2 g), the highest level (Cmax) was 99 ng/mL and the Tmax turned out to be 3 h. In series [2] (oral, 4 g), the peak concentration (Cmax) is 206 ng/mL and the Tmax came to 2.5 h. In series [2] (po, 2 g), the area under the curve AUC(0-t) stood at 364 ± 114 ng·h/mL, the concentration peaked (Cmax) at 124 ± 29 ng/mL, the Tmax was 2 ± 0.6 h and the half-life is 3.8 ± 1 h. Moreover, in series [2] (po, 4 g), the AUC(0-t) was determined as 935 ± 178 ng·h/mL, the Cmax was found to be 259 ± 24 ng/mL, the Tmax was determined as 2 ± 0.6 h and the half-life was 2.2 ± 0.5 h. Further, in series [2], the “Time of larger secondary peak of plasma concentration-time curve” value was 2.5 h and 2.5 to 3 h; the “Time of preliminary” value is 0.5 h. In series [3], the “Screening Total, urine concentration” value amounted to 0.5 ± 5 ng/mL.
